The numbers were not newly measured in patent US6645390B1, “Composition and method for treating hydrocarbon fires” (Hazard Control Technologies, Inc., priority 1994, dated 2003), which cites them from elsewhere.

Consider isononanoic acid, for which the solubility in water entry is “slightly soluble”. For the same substance, the pH result (at the concentration of its slight solubility in water) is “about 3.5”.
